{
  "source": "paper PMC7415805",
  "about": "(Theranostics, 2020)",
  "key": {"mouse splenocytes": {"test_system": "mouse splenocytes", "experiment": "[18F]CB251 uptake in activated splenocytes", "assay_type": "cell-based", "details": "mouse splenocytes activated with LPS and IFN-γ for 24 h vs non-activated", "method": "(§1) RAW264.7, a mouse macrophage cell line and mouse splenocytes were used to evaluate TSPO expression. LPS (50 ng/mL, Sigma-Aldrich, St.Louis, MO, USA) and IFN-γ (20 ng/mL, Sigma-Aldrich) were used to activate immune cells. The 293FT (Invitrogen, Carlsbad, CA, USA) and MDA-MB-231 (ATCC, Manassas, VA, USA) cell lines were used for various TSPO expression levels. Cells were maintained in complete DMEM (for Raw264.7 and MDA-MB-231) or MEM (for 293FT) with 10% FBS and 1% antibiotics (penicillin-streptomycin). All media and reagents for cell culture, including FBS and antibiotics were purchased from Gibco (Grand Island, NY, USA).\n(§2) Cells were seeded in 6-well plates (Sigma-Aldrich) until they reached approximately 80% confluency. Before the uptake experiments, the cells were preincubated with glucose-free RPMI-1640 medium (Gibco) for 4 h. The cells were then trypsinized (Gibco), counted, and 1×10^5 cells transferred into a 5 mL test tube containing warmed Hank's balanced salt solution (HBSS, Sigma-Aldrich) with 0.5% (w/v) bovine serum albumin (Sigma-Aldrich). […] Cell lysates were collected, and radioactivity was measured by a Cobra II gamma counter (Canberra Packard; Vaughan, Ontario, Canada). Radioactivity was normalized according to the amount of total protein at the time of assay. Total protein levels were quantified by the BCA protein assay kit (Pierce, Rockford, IL, USA). […]"}, "[1]": {"test_system": "293FT cells expressing polymorphic TSPOs", "experiment": "PET scans of 293FT cells expressing polymorphic TSPOs (phantoms and mice bearing the cells)", "design": "species or system human", "details": "phantoms and mice bearing 293FT cells with polymorphic TSPOs"}, "TSPO [2]": {"target": "T1, TSPO (Mus musculus, UniProt P50637)", "T1 construct": "from tissue; host or cells: brain (striatum) of living C57BL/6 mice after intracranial LPS or saline", "experiment": "[18F]CB251 PET/MR in intracranial LPS neuroinflammation model", "assay_type": "in vivo", "details": "saline-injected mice, day 4; p=0.012", "method": "C57BL/6 mice (male, 6 weeks old) were used for generating the intracranial inflammation model. LPS (Sigma-Aldrich, 5 µg/2 µL dissolved in saline) was used to induce local inflammation in the right striatum of the mouse brain (anteroposterior, +1.8; mediolateral, +2.0; dorsoventral, -3.0) via intracranial injection by a robotic stereotaxic device (Stoelting, Wood Dale, IL) equipped with a Hamilton syringe at a rate of 0.25 µL/min [52]-[54]. Saline was injected as a control. The mouse was placed in the isoflurane induction box (5% isoflurane, 95% air, 250 cc/min) until the animal was fully anesthetized, and the isoflurane percentage was adjusted to 2% at a flow rate of 250 cc/min during the process.\nTo visualize neuroinflammation, PET/MR scans were acquired by a simultaneous small animal PET insert (SimPET, Brightonic imaging, Seoul, Korea) combined with an M7 1.0 T MRI system (Aspect Imaging, Jerusalem, Israel). […] Mice were anesthetized with 1.5% isoflurane during imaging.\n(§3) PET images were reconstructed using 3D OSEM algorithm (12 subsets and 3 iterations). […] PET and MR images were reconstructed and analyzed by the AMIDE program (ver 0.9.0, http://amide.sourceforge.net). The ratio of maximum PET SUV in the right and left striatum was then calculated."}, "[3]": {"test_system": "MDA-MB-231 cells transfected with pCMV-shTSPO/eGFP", "experiment": "[18F]CB251 uptake in cells with reduced TSPO expression", "assay_type": "cell-based, human", "details": "MDA-MB-231 cells with reduced TSPO expression vs control", "method": "(§4) For overexpression of the TSPO protein, the 293FT cell line was transiently transfected with vectors (pCMV-eGFP/TSPO) (AddGene, Cambridge, MA, USA) harboring the eGFP and TSPO coding sequences. MDA-MB-231, which highly expresses TSPO, was used for the reduction of TSPO expression by shRNA (pCMV-eGFP/shTSPO; AddGene). Each vector used for various levels of TSPO expression was transfected by Lipofectamine 2000 (Invitrogen, Waltham, MA, USA) at a total concentration of 2.5 µg/mL. Fluorescent images were acquired by a confocal laser-scanning microscope (Leica TCS SP8; Wetzlar, Hesse, Germany), and Western blotting was performed for verification.\nas §2"}, "RAW264.7": {"test_system": "RAW264.7", "experiment": "[18F]CB251 uptake in activated macrophage cell line", "assay_type": "cell-based, mouse", "details": "RAW264.7 activated with LPS and IFN-γ for 24 h vs non-activated", "method": "as §1, §2"}, "[4]": {"test_system": "293FT cells expressing polymorphic TSPO", "experiment": "In vitro cellular uptake of radioactive ligands in cells expressing polymorphic TSPO", "assay_type": "cell-based, human", "details": "293FT cells expressing TSPO WT or Mut-A147T; 1 h at 37°C", "method": "Cells were seeded in 6-well plates (Sigma-Aldrich) until they reached approximately 80% confluency. […] The cells were then trypsinized (Gibco), counted, and 1×10^5 cells transferred into a 5 mL test tube containing warmed Hank's balanced salt solution (HBSS, Sigma-Aldrich) with 0.5% (w/v) bovine serum albumin (Sigma-Aldrich). […] The cells were then washed 3 times with cold HBSS and lysed for 5 min in 200 μL of 1% sodium dodecyl sulfate (SDS, Sigma-Aldrich). Cell lysates were collected, and radioactivity was measured by a Cobra II gamma counter (Canberra Packard; Vaughan, Ontario, Canada). Radioactivity was normalized according to the amount of total protein at the time of assay. Total protein levels were quantified by the BCA protein assay kit (Pierce, Rockford, IL, USA). All experiments were performed in triplicate."}, "[5]": {"test_system": "293FT cells transfected with pCMV-TSPO/eGFP", "experiment": "[18F]CB251 uptake in TSPO-overexpressing cells", "assay_type": "cell-based, human", "details": "TSPO-overexpressing 293FT cells vs control", "method": "as §4, §2"}, "TSPO A147T mutant (LAB)": {"test_system": "TSPO A147T mutant (LAB)", "details": "previous reports; cited from earlier work"}, "TSPO [6]": {"target": "TSPO", "details": "Ki of ligands for TSPO; cited from earlier work"}, "[7]": {"test_system": "intracranial LPS-induced neuroinflammation", "experiment": "Anti-inflammatory treatment in intracranial LPS neuroinflammation model, read by [18F]CB251 PET and BLI", "assay_type": "in vivo, mouse", "details": "CDDO-Me i.p. once daily for 3 days after LPS vs LPS-injected mice", "method": "Luciferase-expressing cells were isolated from the dissected spleens of transgenic C57BL/6luc^Tg mice and centrifuged at 1300 rpm for 5 min at 4 °C). The red blood cell lysis buffer (1 mL/spleen, Sigma-Aldrich) was added to the cell pellet, and the mixture was incubated at room temperature for 3 min to remove red cells. After a double volume of RPMI medium was added to the cells, 2-3 volumes of red blood cell lysis buffer were added until complete lysis of red blood cells. Subsequently, the cells were re-suspended, ensuring a suspension of single cells, and filtered through a cell strainer (40 µm nylon, Falcon, Oneonta, NY). […] Bioluminescence intensity was measured by an IVIS 100 system (Perkin Elmer, Waltham, MA). […]\nas §3\nAn in vivo IVIS 100 bioluminescence/optical imaging system (Xenogen, Alameda, CA, USA) was used to follow luciferase-expressing peripheral immune cells. […] The bioluminescent signal was acquired and analyzed by Living Image ver.2.50.2 software (Xenogen). […]"}},
  "data": [
    {"smiles": "CCCN(CCC)C(=O)Cc1c(-c2ccc(OCCF)cc2)nc2c(Cl)cc(Cl)cn12", "note": "[CB251]", "values": [
      {"measurement": "[18F]CB251 uptake", "setting": "mouse splenocytes", "result": "increased"},
      {"measurement": "sensitivity of PET signal to TSPO polymorphism", "setting": "[1]", "result": "less sensitive to TSPO polymorphism"},
      {"measurement": "[18F]CB251 PET signal, saline-injected right striatum vs non-injected left striatum", "setting": "TSPO [2]", "result": "increased slightly"},
      {"measurement": "[18F]CB251 uptake", "setting": "[3]", "result": "decreased"},
      {"measurement": "[18F]CB251 uptake", "setting": "RAW264.7", "result": "increased"},
      {"measurement": "sensitivity of cellular uptake to TSPO polymorphism", "setting": "[4]", "result": "much less sensitive to TSPO polymorphism"},
      {"measurement": "[18F]CB251 uptake", "setting": "[5]", "result": "increased"}
    ]},
    {"smiles": "CCC(C)N(C)C(=O)c1cc2ccccc2c(-c2ccccc2Cl)n1", "note": "(stereo not drawn) [PK11195, reference compound]", "values": [
      {"measurement": "sensitivity of cellular uptake to TSPO polymorphism", "setting": "[4]", "result": "much less sensitive to TSPO polymorphism"}
    ]},
    {"smiles": "COc1ccccc1CN(C(C)=O)c1cnccc1Oc1ccccc1", "note": "[PBR28, reference compound]", "values": [
      {"measurement": "ratio of IC50 LAB/HAB", "setting": "TSPO A147T mutant (LAB)", "result": 55},
      {"measurement": "Ki", "setting": "TSPO [6]", "result": 6.1, "unit": "nM"}
    ]},
    {"smiles": "COC(=O)[C@]12CCC(C)(C)C[C@H]1[C@H]1C(=O)C=C3[C@@]4(C)C=C(C#N)C(=O)C(C)(C)[C@@H]4CC[C@@]3(C)[C@]1(C)CC2", "note": "[CDDO-Me, 2-Cyano-3,12-dioxo-oleana-1,9(11)-dien-28-oic acid methyl ester]", "values": [
      {"measurement": "BLI signal ratio (total photon flux, right/left striatum)", "setting": "[7]; p=0.0025", "result": "decreased dramatically"},
      {"measurement": "[18F]CB251 uptake ratio (SUVmax, right/left striatum)", "setting": "[7]; p=0.0323", "result": "significantly decreased"}
    ]}
  ]
}
